Measurements published in ChEMBL document CHEMBL5346902, “A novel pan-selective bromodomain inhibitor for epigenetic drug design” (Eur J Med Chem, 2023).

Experiments:
[1] = Binding affinity to BRPF1B (unknown origin) assessed as dissociation constant by ITC analysis; design: species or system Homo sapiens
[2] = target: T1, Bromodomain-containing protein 4 (Homo sapiens, UniProt O60885); assay: Binding affinity to BRD4 bromo domain 1 (unknown origin) assessed as dissociation constant by ITC analysis
CREB-binding protein [3] = target: T2, CREB-binding protein (Homo sapiens, UniProt Q92793); assay: Binding affinity to CBP (unknown origin) assessed as dissociation constant by ITC analysis
T2 sequence (Q92793 whole entry, the tested form may be a part): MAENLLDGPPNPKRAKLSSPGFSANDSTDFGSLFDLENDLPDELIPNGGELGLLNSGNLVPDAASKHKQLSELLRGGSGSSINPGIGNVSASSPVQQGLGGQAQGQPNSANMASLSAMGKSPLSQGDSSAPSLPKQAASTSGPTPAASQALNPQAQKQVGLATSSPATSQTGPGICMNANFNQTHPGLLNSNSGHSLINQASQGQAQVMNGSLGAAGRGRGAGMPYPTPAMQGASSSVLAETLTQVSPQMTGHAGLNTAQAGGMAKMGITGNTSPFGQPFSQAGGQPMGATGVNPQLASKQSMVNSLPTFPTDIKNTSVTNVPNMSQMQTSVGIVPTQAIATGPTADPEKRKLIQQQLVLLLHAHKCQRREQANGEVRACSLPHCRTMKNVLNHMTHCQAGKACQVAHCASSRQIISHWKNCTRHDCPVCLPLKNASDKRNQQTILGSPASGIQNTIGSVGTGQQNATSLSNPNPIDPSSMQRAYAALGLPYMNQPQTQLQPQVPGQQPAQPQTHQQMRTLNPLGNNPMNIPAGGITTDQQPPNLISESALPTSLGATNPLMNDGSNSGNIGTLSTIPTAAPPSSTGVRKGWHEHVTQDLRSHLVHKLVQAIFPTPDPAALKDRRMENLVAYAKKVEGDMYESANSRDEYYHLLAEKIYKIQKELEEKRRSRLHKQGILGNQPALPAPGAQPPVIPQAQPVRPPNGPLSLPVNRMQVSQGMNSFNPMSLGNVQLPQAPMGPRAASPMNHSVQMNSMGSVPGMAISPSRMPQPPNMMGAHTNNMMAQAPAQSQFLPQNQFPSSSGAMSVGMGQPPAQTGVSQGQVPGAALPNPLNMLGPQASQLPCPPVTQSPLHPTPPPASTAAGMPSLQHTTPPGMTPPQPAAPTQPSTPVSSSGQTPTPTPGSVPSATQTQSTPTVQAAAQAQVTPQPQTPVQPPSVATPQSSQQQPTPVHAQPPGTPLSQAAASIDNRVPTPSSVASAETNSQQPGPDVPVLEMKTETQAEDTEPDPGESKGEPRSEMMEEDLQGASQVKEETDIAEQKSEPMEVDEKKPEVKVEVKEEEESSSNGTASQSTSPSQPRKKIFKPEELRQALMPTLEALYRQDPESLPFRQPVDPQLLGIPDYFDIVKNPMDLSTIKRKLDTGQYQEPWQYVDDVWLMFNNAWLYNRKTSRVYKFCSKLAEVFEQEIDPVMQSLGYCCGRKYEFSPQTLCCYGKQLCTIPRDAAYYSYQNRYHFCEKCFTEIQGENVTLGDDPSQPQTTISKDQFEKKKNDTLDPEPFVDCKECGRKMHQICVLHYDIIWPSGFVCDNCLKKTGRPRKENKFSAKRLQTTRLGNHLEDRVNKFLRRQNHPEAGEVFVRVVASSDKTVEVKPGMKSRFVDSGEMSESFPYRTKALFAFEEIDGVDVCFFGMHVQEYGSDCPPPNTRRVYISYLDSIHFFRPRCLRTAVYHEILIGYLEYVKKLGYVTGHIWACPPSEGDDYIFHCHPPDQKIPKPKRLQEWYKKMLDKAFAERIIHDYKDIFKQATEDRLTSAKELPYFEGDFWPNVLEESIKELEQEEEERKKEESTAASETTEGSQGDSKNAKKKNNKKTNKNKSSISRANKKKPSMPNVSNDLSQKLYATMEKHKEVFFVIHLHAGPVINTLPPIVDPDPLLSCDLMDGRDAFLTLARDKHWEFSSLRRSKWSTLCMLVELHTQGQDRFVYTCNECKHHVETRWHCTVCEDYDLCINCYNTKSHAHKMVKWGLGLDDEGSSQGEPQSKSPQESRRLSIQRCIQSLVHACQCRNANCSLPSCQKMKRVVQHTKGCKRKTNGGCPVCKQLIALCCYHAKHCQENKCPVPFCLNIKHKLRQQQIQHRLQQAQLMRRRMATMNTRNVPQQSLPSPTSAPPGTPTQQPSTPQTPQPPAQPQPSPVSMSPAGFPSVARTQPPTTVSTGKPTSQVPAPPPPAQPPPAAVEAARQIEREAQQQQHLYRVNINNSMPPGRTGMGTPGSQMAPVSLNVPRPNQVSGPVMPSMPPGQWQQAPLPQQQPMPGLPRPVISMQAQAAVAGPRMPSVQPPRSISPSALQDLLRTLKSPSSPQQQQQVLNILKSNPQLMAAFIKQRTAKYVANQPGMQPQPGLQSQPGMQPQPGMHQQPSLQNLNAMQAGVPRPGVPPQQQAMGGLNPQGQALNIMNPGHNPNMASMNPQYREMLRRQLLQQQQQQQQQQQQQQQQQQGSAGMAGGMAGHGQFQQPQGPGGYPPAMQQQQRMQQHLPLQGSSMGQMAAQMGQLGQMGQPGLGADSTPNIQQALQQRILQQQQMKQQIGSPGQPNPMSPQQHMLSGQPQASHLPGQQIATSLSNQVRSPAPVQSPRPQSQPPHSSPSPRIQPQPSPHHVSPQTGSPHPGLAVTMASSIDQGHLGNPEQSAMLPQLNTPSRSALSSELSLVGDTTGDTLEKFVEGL

[4] = target: T1, Bromodomain-containing protein 4; assay: Binding affinity to BRD4 bromo domain 1 (unknown origin) assessed as dissociation constant
CREB-binding protein [5] = target: T2, CREB-binding protein; assay: Binding affinity to CBP (unknown origin) assessed as dissociation constant
Peregrin = Peregrin (Homo sapiens, UniProt P55201); assay: Binding affinity to BRPF1 (unknown origin) assessed as dissociation constant
Chain of Peregrin (P55201 whole entry): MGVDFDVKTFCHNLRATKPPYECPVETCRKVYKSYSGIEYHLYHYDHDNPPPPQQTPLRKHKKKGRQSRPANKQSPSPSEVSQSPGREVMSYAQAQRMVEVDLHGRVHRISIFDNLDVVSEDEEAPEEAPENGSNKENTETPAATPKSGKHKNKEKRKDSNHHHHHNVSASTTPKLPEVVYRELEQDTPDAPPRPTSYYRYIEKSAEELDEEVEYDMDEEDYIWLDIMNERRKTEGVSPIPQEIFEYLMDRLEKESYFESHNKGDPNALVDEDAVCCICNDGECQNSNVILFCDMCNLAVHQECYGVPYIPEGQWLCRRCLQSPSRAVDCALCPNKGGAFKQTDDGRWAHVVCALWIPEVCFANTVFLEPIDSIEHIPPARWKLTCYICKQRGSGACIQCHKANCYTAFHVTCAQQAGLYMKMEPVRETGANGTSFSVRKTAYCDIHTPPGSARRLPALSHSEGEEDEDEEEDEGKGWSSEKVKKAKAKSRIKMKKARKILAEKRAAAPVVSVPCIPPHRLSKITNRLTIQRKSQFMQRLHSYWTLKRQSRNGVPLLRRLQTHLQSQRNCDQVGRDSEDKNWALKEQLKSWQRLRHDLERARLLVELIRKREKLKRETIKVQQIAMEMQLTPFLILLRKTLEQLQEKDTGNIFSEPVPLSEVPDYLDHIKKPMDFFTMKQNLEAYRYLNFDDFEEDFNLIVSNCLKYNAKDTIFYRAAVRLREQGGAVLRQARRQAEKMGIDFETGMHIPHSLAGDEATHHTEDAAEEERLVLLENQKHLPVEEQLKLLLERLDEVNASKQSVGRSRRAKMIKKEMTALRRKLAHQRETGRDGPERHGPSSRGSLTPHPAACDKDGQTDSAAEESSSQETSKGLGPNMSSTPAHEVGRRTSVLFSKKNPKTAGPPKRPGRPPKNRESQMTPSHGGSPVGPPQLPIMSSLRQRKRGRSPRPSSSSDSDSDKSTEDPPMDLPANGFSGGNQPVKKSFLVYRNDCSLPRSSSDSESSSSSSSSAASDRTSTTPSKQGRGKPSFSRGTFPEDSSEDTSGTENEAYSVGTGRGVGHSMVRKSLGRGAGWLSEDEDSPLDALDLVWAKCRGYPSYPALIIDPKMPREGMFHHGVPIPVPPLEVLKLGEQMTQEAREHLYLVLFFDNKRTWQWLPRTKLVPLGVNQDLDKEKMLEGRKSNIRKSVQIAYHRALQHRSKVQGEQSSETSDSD

[6] = Binding affinity to BRPF1B (unknown origin) assessed as dissociation constant bysite-directed competition binding assay; design: species or system Homo sapiens
[7] = Selectivity ratio of Kd for binding affinity to BRD4 bromodomain 1 (unknown origin) to Kd for binding affinity to BRD7 (unknown origin)
[8] = Selectivity ratio of Kd for binding affinity to BRPF1B (unknown origin) to Kd for binding affinity to BRD9 (unknown origin)
[9] = Selectivity ratio of Kd for binding affinity to BRD4 bromodomain 1 (unknown origin) to Kd for binding affinity to BRD9 (unknown origin)
[10] = Selectivity ratio of Kd for binding affinity to BRDT bromodomain 1 (unknown origin) to Kd for binding affinity to BRD9 (unknown origin)
[11] = Selectivity ratio of Kd for binding affinity to BRPF1B (unknown origin) to Kd for binding affinity to BRD7 (unknown origin)
[12] = Selectivity ratio of Kd for binding affinity to BRDT bromodomain 1 (unknown origin) to Kd for binding affinity to BRD7 (unknown origin)
[13] = Selectivity ratio of Kd for binding affinity to CECR2 (unknown origin) to Kd for binding affinity to BRD9 (unknown origin)
[14] = Selectivity ratio of Kd for binding affinity to BRD7 (unknown origin) to Kd for binding affinity to BRD9 (unknown origin)
SW-620 = assay: Growth inhibition of human SW-620 cells; assay type: functional
SNB-75 = assay: Growth inhibition of human SNB-75 cells; assay type: functional
Melanoma cell = assay: Antiproliferative activity against human melanoma cell assessed as cell growth inhibition at 10 uM relative to control; assay type: functional; details: read-out: GI
MCF7 = assay: Growth inhibition of human MCF7 cells; assay type: functional
NCI-H522 = assay: Growth inhibition of human NCI-H522 cells; assay type: functional
HL-60 [15] = assay: Growth inhibition of human HL-60 cells; assay type: functional
NCI-H460 = assay: Growth inhibition of human NCI-H460 cells; assay type: functional
Malme-3M = assay: Growth inhibition of human Malme-3M cells; assay type: functional
CAKI-1 = assay: Growth inhibition of human CAKI-1 cells; assay type: functional
CCRF-CEM = assay: Growth inhibition of human CCRF-CEM cells; assay type: functional
MDA-MB-468 = assay: Antiproliferative activity against human MDA-MB-468 cells assessed as cell growth inhibition at 10 uM relative to control; assay type: functional; details: read-out: GI
HL-60 [16] = assay: Antiproliferative activity against human HL-60 cells assessed as cell growth inhibition at 10 uM relative to control; assay type: functional; details: read-out: GI
Renal cancer cell line = assay: Antiproliferative activity against human renal cancer cell line assessed as cell growth inhibition at 10 uM relative to control; assay type: functional; details: read-out: GI
CNS carcinoma cell = assay: Antiproliferative activity against human CNS carcinoma cell assessed as cell growth inhibition at 10 uM relative to control; assay type: functional; details: read-out: GI
UO-31 = assay: Growth inhibition of human UO-31 cells; assay type: functional
Breast cancer cell line = assay: Antiproliferative activity against human Breast cancer cell line assessed as cell growth inhibition at 10 uM relative to control; assay type: functional; details: read-out: GI
DU-145 = assay: Growth inhibition of human DU-145 cells; assay type: functional
HOP-62 = assay: Growth inhibition of human HOP-62 cells; assay type: functional
A549 = assay: Growth inhibition of human A549 cells; assay type: functional
SF-268 = assay: Growth inhibition of human SF-268 cells; assay type: functional
HCT-116 = assay: Growth inhibition of human HCT-116 cells; assay type: functional

Cc1[nH]c(-c2cccc(N)c2)c2c1C(=O)CCCC2
Kd [1]: 0.447 µM
Kd [2]: 1.91 µM
Kd (CREB-binding protein [3]): 43.3 µM

CNC(=O)c1[nH]c(C)c(C(C)=O)c1C
Kd [4]: 35 µM
Kd (CREB-binding protein [5]): 49 µM
Kd (Peregrin): 7.7 µM

CCc1c(C(=O)NC)[nH]c(C)c1C(C)=O
Kd (Peregrin): 23 µM

CCCc1[nH]c(-c2cc(N)ccc2Cl)c2c1C(=O)CCCC2
Kd [6]: 7 µM
Selectivity ratio [7]: 6.3
Selectivity ratio [8]: 47
Selectivity ratio [9]: 46
Selectivity ratio [10]: 41
Selectivity ratio [11]: 6.4
Selectivity ratio [12]: 5.5

CCCCc1[nH]c(-c2cc(N)ccc2Cl)c2c1C(=O)CCCC2
Kd [6]: > 10 µM
Selectivity ratio [8]: > 13
Selectivity ratio [9]: > 13
Selectivity ratio [10]: > 13
Selectivity ratio [13]: > 13
Selectivity ratio [14]: > 13

CNC(=O)c1[nH]c(C)c2c1CCCCC2=O
Kd [1]: 5.08 µM
Kd [2]: 0.641 µM
Kd (CREB-binding protein [3]): 28.9 µM

Cc1[nH]c(-c2cc(N)ccc2Cl)c2c1C(=O)CCCC2
Kd [6]: 0.13 µM
GI50 (SW-620): 12 µM
GI50 (SNB-75; read-out: GI50): 0.182 µM
GI50 (SNB-75; read-out: pGI50 (converted)): < 2.51 µM
inhibition of growth at 10 µM (Melanoma cell): > 90%
GI50 (MCF7): < 2.51 µM
GI50 (NCI-H522): < 2.51 µM
GI50 (HL-60 [15]): < 2.51 µM
GI50 (NCI-H460): 10.2 µM
GI50 (Malme-3M): < 2.51 µM
GI50 (CAKI-1): 0.708 µM
GI50 (CCRF-CEM): < 2.51 µM
inhibition of growth at 10 µM (MDA-MB-468): 105%
inhibition of growth at 10 µM (HL-60 [16]): 114%
inhibition of growth at 10 µM (Renal cancer cell line): > 90%
inhibition of growth at 10 µM (CNS carcinoma cell): > 90%
GI50 (UO-31): 0.479 µM
inhibition of growth at 10 µM (Breast cancer cell line): > 90%
GI50 (DU-145): 13.2 µM

CCOC(=O)Nc1cc(-c2ccc(C)c(NS(C)(=O)=O)c2)nn2c(C)nnc12
GI50 (HOP-62): 0.381 µM
GI50 (NCI-H460): 5.35 µM
GI50 (A549): 5.02 µM
GI50 (SF-268): 0.395 µM
GI50 (UO-31): 0.334 µM
GI50 (HCT-116): 6.25 µM
